Test results as given in patent publication US8669250B2, “Derivatives of aryl-{4-halogeno-4-[aminomethyl]-piperidin-1-yl}-methanone, their method of preparation and their use as medicinal products” (Pierre Fabre Medicament, priority 2009, dated 2014).
Where a name gives a salt, the structure may show the parent alone.

Tests used:
[1] = biological target: T1, 5-HT1A receptor (Rattus norvegicus, UniProt P19327); assay: Affinity for 5-HT1A receptors, shift of (3H)8-OH-DPAT in rat cerebral cortex; assay type: binding; details: mean of at least 3 experiments, read-out: 5-HT1A affinity (pKi) (converted)
T1 construct: the cerebral cortex is sampled and homogenized in 20 volumes of buffer; from tissue; host or cells: rat cerebral cortex homogenate (membranes)
T1 sequence (P19327 1-422): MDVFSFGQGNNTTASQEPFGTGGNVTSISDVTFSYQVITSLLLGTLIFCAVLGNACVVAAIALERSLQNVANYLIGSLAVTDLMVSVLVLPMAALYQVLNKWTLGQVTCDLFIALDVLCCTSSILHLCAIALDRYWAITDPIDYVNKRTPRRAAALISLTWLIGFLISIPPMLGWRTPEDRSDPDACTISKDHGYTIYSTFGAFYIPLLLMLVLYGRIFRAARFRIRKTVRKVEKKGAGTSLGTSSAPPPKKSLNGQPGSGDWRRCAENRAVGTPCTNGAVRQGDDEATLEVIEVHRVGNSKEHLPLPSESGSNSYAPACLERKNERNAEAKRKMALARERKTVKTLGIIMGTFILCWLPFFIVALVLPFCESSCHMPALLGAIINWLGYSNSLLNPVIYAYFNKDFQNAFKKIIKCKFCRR
Description: (§1) The affinity of the compounds of the invention for the rat 5-HT1A receptor was measured conventionally from competitive experiments with a radiolabelled 5-HT1A agonist. […] This test is widely used since it is predictive of antidepressant action in man. Analgesic activity was determined after intra-peritoneal administration to rats, both with a physiological pain model and a pathological pain model. By physiological pain, the inventors designate pain whose origin is a lesion and/or organic ill-function such as pain caused by excessive nociceptive stimuli.
The in vitro affinity of the compounds of the invention for the 5-HT1A receptors was determined by measuring the shift of (^3H)8-OH-DPAT (agonist of 5HT1A receptors labelled with tritium, TRK 850; 160-240 Ci/mmole).
The study on binding with the 5-HT1A receptor was conducted as described in Naunyn-Schmiedeberg's Arch. Pharmaco. 1991, 343, 106. For these experiments, rat cerebral cortices were used. After unfreezing the brain in Tris-HCl buffer 50 mmol, pH=7.40 at 25° C., the cerebral cortex is sampled and homogenized in 20 volumes of buffer held at 4° C. The homogenate is centrifuged at 39000 g for 10 min, the centrifuge residue is suspended in the same volume of buffer and again centrifuged. After further suspension under the same conditions, the homogenate is incubated for 10 min at 37° C. then again centrifuged. The final residue is suspended in cold reaction buffer Tris-HCl 50 mmol, pH=7.40 at 25° C. containing […] of pargyline, 4 mmol of CaCl2 and 0.10% ascorbic acid. The final concentration of the tissue in the incubation medium is 10 mg/tube.
The reaction tubes contain 0.10 mL of (^3H)8-OH-DPAT (final […]), 0.10 mL of product to be tested 6-7 concentrations and 0.80 mL of tissue. Non-specific binding is defined using […] of 5-HT. The reaction tubes are incubated at 23° C. for 30 min then their content is rapidly vacuum filtered through Whatman GF/B filters, the tubes are rinsed with 2×5 mL of Tris-HCl buffer 50 mmol, pH=7.4 at 25° C. Radioactivity is collected on the filter and analyzed by liquid scintillation by adding 4 mL of scintillating liquid (Emulsifier Safe, Packard). All experiments were performed in triplicate.
The inhibition constants (Ki) of the products of the invention are estimated from shift experiments using the non-linear regression programme RADLIG version 4 by EBDA (Equilibrium Binding Data Analysis Biosoft, Cambridge, UK, Mc Pherson, 1985). The dissociation constant of the radioactive ligand used for calculations is […] for (^3H)8-OH-DPAT. The values of pKi (−log Ki) are given in the form mean±SEM of at least 3 experiments.

[2] = tested on: rats, forced swimming immobility; assay: Forced swimming test (antidepressant activity); assay type: in vivo; details: rat, oral, even at a dose of 40 mg/Kg
Description: as §1
The rats (Male Sprague Dawley rats (ICO: OFA SD [IOPS], Iffa Credo, France), are placed in a cylinder (45 cm high and 20 cm in diameter) filled with water at 25° C.±0.5 up to a height of 17 cm. This depth allows rats to swim or float without their tail touching the bottom of the cylinder.
24 h before the test day, the rats are placed in the cylinder for 15 min, a lapse of time after which they no longer attempt to escape and remain immobile. On the test day the animals are replaced in the cylinder and the duration of animal immobility is measured by direct observation followed by verification of an audiovisual recording for 5 min. The products of the invention are administered by oral route 60 min before the test. A rat is considered to be immobile if it allows itself to float and only makes small movements to remain on the surface. Two rats are observed at the same time.
(§2) Quantification of the effect of the compounds of the invention on the forced swimming tests and on the formol test is conducted by one-factor variance analysis between groups (ANOVA analysis) followed by a multiple comparison test (Dunnett's test) versus control animals. The ED50 value is calculated using Litchfield and Wilcoxon analysis from the percentage of responding animals.

[3] = tested on: rats, formol-induced pain; assay: Formol test (analgesic activity, physiological pain); assay type: in vivo; details: rat, i.p.
From the text: (§3) The physiological pain model chosen by the inventors to determine the analgesic activity of the compounds of the invention uses excess nociceptive stimuli (injection of formol) to cause a painful sensation in animal (Eur. J. Pharmacol. 2001, 421, 109). For the so-called pathological pain model in animal, the inventors chose to use pain induced by the injection of a cytotoxic agent such as oxaliplatine (Eur. J. Cancer 2007, 2658).
The rats (Male Sprague Dawley rats (ICO: OFA SD [IOPS], Iffa Credo, France) are placed in plexiglass observation boxes above an angled mirror so as to facilitate observation of the hind paws. After thirty minutes of habituation, the animals are given an injection of formol diluted to 2.5% on the plantar surface of the right hind paw. The injection of formol produces behavioural responses which occur in two phases:
an acute phase, from 0 to 5 min after injection of the formol, corresponding to stimulation of receptors specialized in the transmission of pain messages to the spinal cord.
a late phase which occurs 20 to 30 min after the injection. This phase corresponds to stimulation of receptors by inflammatory mediators and/or to hyper-excitability of the dorsal horn induced during the first phase. This late phase therefore involves central sensitization.
For the study of the compounds of the invention we selected two expressions of painful behaviour and chose two periods of observation which correspond to the two pain phases (i.e. 0-5 min and 22.5-27.5 min). During these two 5-min periods the animals are observed every 30 seconds and are given scores for the following behaviours: paw licking or not of the injected paw, and lifting or non-lifting of the injected paw. Ten observations give a maximum score of 10 for each parameter for each of the 2 phases. The products of the invention are administered via intraperitoneal route 15 min before the injection of formol.
as §2
For this test, the animals are observed every 30 seconds during two periods of 5 min. The following behaviours are noted: paw licking or not of the injected paw, and paw lifting or not of the injected paw. Ten observations give a maximum score of 10 for each parameter for each of the 2 phases, measuring either paw lifting or paw licking. This test was also performed by comparison with administration of the vehicle (veh) alone.

[4] = tested on: rats, oxaliplatine-induced allodynia; assay: Oxaliplatine test, von Frey (analgesic activity, pathological pain); assay type: in vivo; details: rat, i.p., even at a dose of 2.5 mg/kg
From the text: as §3
The rats (Male Sprague Dawley rats (ICO: OFA SD [IOPS], Iffa Credo, France) are tested a first time on the Friday to determine their mechanical sensitivity threshold (von Frey test). They are then given an intra-peritoneal injection (i.p.) of oxaliplatine (anticancer treatment causing neuropathic pain in patients) at a dose of 8 mg/kg. This dose in rat induces neuropathy which translates as mechanical hypersensitivity (allodynia) which develops 3 days after the injection with a peak on day five. For the study of the compounds of the invention, the animals are re-tested on day five, 15 min after administration of the compound via intra-peritoneal route.
The pressure force is then measured (in g) at which withdrawal of the paw of the animals is observed.

Row | melting point | Ki [1] | SMILES | further results
1 | 125 °C |  | CN1CC(CNCC2(F)CCN(C(=O)c3ccc(F)c(Cl)c3)CC2)Oc2ccccc21 (stereo not drawn) (as salt: fumarate) [Compound 1g, (3-Chloro-4-fluoro-phenyl)-{4-fluoro-4-[(3,4-dihydro-2H-4-methyl-1,4-benzoxazine-2-methanamino)-methyl]-piperidin-1-yl}-methanone] | 
2 | 185 °C |  | O=C(c1ccc(F)c(Cl)c1)N1CCC(F)(CNCC2CNc3ccccc3O2)CC1 (single isomer, unassigned; (-)) (as salt: fumarate) [Compound 1a1, (−)-(3-Chloro-4-fluoro-phenyl)-{4-fluoro-4-[(3,4-dihydro-2H-1,4-benzoxazine-2-methanamino)-methyl]-pipéridin-1-yl}-methanone] | 
3 | 100 °C |  | O=C(c1ccc(F)c(Cl)c1)N1CCC(F)(CNCC2CNc3cccc(F)c3O2)CC1 (stereo not drawn) (as salt: fumarate) [Compound 1b, (3-Chloro-4-fluoro-phenyl)-{4-fluoro-4-[(3,4-dihydro-2H-8-fluoro-1,4-benzoxazine-2-methanamino)-methyl]-piperidin-1-yl}-methanone] | 
4 | 175 °C |  | O=C(c1ccc(F)c(Cl)c1)N1CCC(F)(CNCC2CNc3ccccc3O2)CC1 (stereo not drawn) (as salt: hydrochloride) [Compound 1a3, (3-Chloro-4-fluoro-phenyl)-{4-fluoro-4-[(3,4-dihydro-2H-1,4-benzoxazine-2-methanamino)-methyl]-piperidin-1-yl}-methanone] | 
5 |  | 2.29 nM | O=C(c1ccc(F)c(Cl)c1)N1CCC(F)(CNCC2CNc3cccc(Cl)c3O2)CC1 (stereo not drawn) [Compound 1d, (3-Chloro-4-fluoro-phenyl)-{4-fluoro-4-[(3,4-dihydro-2H-8-chloro-1,4-benzoxazine-2-methanamino)-methyl]-piperidin-1-yl}-methanone] | 
6 |  | 1.51 nM | COc1cccc2c1OC(CNCC1(F)CCN(C(=O)c3ccc(F)c(Cl)c3)CC1)CN2 (stereo not drawn) [Compound 1e, (3-Chloro-4-fluoro-phenyl)-{4-fluoro-4-[(3,4-dihydro-2H-8-methoxy-1,4-benzoxazine-2-methanamino)-methyl]-piperidin-1-yl}-methanone] | 
7 |  | 0.646 nM | N#Cc1cccc2c1OC(CNCC1(F)CCN(C(=O)c3ccc(F)c(Cl)c3)CC1)CN2 (stereo not drawn) [Compound 1f, (3-Chloro-4-fluoro-phenyl)-{4-fluoro-4-[(3,4-dihydro-2H-8-cyano-1,4-benzoxazine-2-methanamino)-methyl]-piperidin-1-yl}-methanone] | 
8 |  | 0.794 nM | CN1CC(CNCC2(F)CCN(C(=O)c3ccc(F)c(Cl)c3)CC2)Oc2ccccc21 (stereo not drawn) [Compound 1g, (3-Chloro-4-fluoro-phenyl)-{4-fluoro-4-[(3,4-dihydro-2H-4-methyl-1,4-benzoxazine-2-methanamino)-methyl]-piperidin-1-yl}-methanone] | 
9 |  | 1.23 nM | Cc1cccc2c1OC(CNCC1(F)CCN(C(=O)c3ccc(F)c(Cl)c3)CC1)CN2 (stereo not drawn) [Compound 1c, (3-Chloro-4-fluoro-phenyl)-{4-fluoro-4-[(3,4-dihydro-2H-8-methyl-1,4-benzoxazine-2-methanamino)-methyl]-piperidin-1-yl}-methanone] | 
10 |  | 0.631 nM | O=C(c1ccc(F)c(Cl)c1)N1CCC(F)(CNCC2CNc3cccc(F)c3O2)CC1 (stereo not drawn) [Compound 1b, (3-Chloro-4-fluoro-phenyl)-{4-fluoro-4-[(3,4-dihydro-2H-8-fluoro-1,4-benzoxazine-2-methanamino)-methyl]-piperidin-1-yl}-methanone] | 
11 |  |  | O=C1CC2(CCCC2)CC(=O)N1CCCCN1CCN(c2ncccn2)CC1 [buspirone, reference compound] | effect on animal immobility [2]: no effect on animal immobility; dose on and after which paw lifting is affected ([3]; acute phase and late phase): ≥ 2.5 mg/kg; dose on and after which paw licking is inhibited ([3]; late phase): ≥ 2.5 mg/kg; analgesia, in words [4]: does not produce any significant analgesia
12 |  | 0.741 nM | NC(=O)c1cccc2c1OC(CNCC1(F)CCN(C(=O)c3ccc(F)c(Cl)c3)CC1)CN2 (stereo not drawn) [Compound 1h, (3-Chloro-4-fluoro-phenyl)-{4-fluoro-4-[(3,4-dihydro-2H-8-carbamoyl-1,4-benzoxazine-2-methanamino)-methyl]-piperidin-1-yl}-methanone] | 
